Assay results published in patent publication US5126258A (priority 1988, dated 1992).

Test system: Monoclonal Receptor 37G2
Experiment: Kinetics of hydrolysis by receptor 37G2
Assay type: biochemical, mouse
Excerpt: Reaction kinetics were studied using three reactant ligands as substrates for monoclonal receptors 37G2 and 22F5. Data from initial rates were consistent with Michaelis-Menten reaction mechanism for a usual enzyme-substrate system. Initial rates were followed using at 271 nm using a U.V.-visible spectorphotometer for Compound 17, and a fluorescence spectrometer for Compounds 5 and 20, using an excitation wavelength of 355 nm and an emission wavelength of 455 nm for both compounds.
Lineweaver-Burke plots for the catalyzed hydrolysis of Compounds 17, 5 and 20 obtained in the presence and absence of Compound 12i as inhibitor were prepared as discussed for FIG. 4. In particular, Compound 17 was present at concentrations of 1-16 uM with inhibitor concentrations of 100 and 300 nanomolar (nM). Compound 5 was present at concentrations of 1-10 uM with inhibitor concentrations of 100 and 200 nM. Compound 20 was present at concentrations of 2-20 uM with inhibitor concentrations of 25 and 100 nM. […]
50 mM phosphate buffer at a pH value of 8.0. The reactant ligand was
dissolved in dioxane and admixed in the amounts discussed above. Two
milliliters of reaction solution were utilized as was a dioxane
concentration of 2 percent by volume. Assays with Compound 17 as reac tan
ligand utilized 500 nanomolar receptor (based on a molecular weight of
150,000 daltons) in the above buffer, using the reactant ligand dissolved
in dioxane and a total dioxane concentration of 2 percent by volume.

CC(=O)Nc1ccc(CC(=O)Oc2cccc3ccccc23)cc1 [Compound 17]
Km (50 mM phosphate pH 8.0, 500 nM receptor, 2% dioxane, figure = Km × 10^6): 15 µM | kcat (pH 8.0): 0.0016 s⁻¹ | Vmax (pH 8.0, 500 nM receptor, figure = Vmax × 10^9): 0.042 µM/min
